As usually defined, the Ki is a dissociation constant, usually derived from enzyme kinetics or from competition with a known ligand. The low end stands for a stronger hold on the target, the high end for a looser hold on the target.

In one assay the test system is Raji cells. Particulars: Irie and Koshimizu 1988; cited from earlier work.
Assay [1] deals with protein kinase C preparation. Particulars: Irie and Koshimizu 1988; cited from earlier work.
In the next assay the target is T1, protein kinase C δ (Homo sapiens, UniProt Q05655).
T1 construct: made in house
T1 sequence (Q05655 whole entry): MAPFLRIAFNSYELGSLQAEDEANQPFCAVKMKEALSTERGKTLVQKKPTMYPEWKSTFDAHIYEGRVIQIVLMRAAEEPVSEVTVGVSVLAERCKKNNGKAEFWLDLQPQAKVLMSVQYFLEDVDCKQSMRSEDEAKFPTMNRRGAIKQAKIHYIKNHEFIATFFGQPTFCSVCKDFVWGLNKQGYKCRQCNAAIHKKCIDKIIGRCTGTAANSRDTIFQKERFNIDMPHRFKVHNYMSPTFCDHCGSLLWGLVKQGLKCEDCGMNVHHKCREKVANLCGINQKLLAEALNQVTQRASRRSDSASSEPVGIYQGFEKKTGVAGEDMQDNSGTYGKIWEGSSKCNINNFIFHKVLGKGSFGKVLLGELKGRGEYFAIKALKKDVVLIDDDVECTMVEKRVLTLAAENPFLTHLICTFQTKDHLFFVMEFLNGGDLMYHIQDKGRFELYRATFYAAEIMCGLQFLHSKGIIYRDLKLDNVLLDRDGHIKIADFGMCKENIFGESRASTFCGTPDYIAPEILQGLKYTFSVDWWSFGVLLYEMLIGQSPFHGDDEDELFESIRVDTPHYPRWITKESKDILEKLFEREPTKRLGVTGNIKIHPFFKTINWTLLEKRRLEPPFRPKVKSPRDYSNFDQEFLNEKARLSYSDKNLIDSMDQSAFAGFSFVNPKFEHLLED
The assay can be described thus: [3H]PDBu receptor binding assay, protein kinase C δ.

A further assay deals with T2, human protein kinase Cθ (Homo sapiens, UniProt Q04759).
T2 construct: Successful full-length expression of each isotype was confirmed by immunoblotting; FLAG (from vector pFlag-Mac); made in house; host or cells: E. coli strain DH5
T2 sequence (Q04759 whole entry): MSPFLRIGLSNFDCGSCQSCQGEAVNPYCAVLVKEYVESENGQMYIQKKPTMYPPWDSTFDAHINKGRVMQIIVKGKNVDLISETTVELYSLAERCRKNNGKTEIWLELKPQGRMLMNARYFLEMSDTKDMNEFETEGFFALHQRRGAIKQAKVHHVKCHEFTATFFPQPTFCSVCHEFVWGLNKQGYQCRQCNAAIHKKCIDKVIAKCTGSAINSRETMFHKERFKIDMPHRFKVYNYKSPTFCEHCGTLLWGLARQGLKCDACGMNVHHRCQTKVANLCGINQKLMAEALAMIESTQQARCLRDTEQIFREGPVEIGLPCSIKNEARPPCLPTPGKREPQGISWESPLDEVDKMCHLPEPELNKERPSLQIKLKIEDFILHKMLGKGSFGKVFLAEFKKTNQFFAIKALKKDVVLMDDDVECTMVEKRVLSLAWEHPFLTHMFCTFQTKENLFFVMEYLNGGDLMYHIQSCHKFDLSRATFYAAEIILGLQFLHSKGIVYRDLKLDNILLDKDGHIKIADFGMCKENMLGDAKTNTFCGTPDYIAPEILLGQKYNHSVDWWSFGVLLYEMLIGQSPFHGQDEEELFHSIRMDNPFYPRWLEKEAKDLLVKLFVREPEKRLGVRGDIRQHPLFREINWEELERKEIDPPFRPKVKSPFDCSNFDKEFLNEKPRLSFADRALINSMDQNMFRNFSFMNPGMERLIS
The assay can be described thus: [3H]PDBu receptor binding assay, protein kinase C θ. The text has this: (§1) Recombinant protein kinase Cα, β1, γ, ε, η, θ and μ were obtained as crude cell preparations as follows. The protein kinase C isotypes were expressed in Sf9 or Sf158 insect cells using recombinant baculoviruses as described (Patel and Stabel, 1989; Stabel, Schaap and Parker, 1991; Johannes et al., 1994). In the case of the θ isotype, human protein kinase Cθ was cloned in the plasmid vector pFlag-Mac and the protein expressed in E. coli strain DH5. Successful full-length expression of each isotype was confirmed by immunoblotting of infected insect cell or E. coli lysates with isotype-specific antibodies (Marais and Parker, 1989) as described (Liyange et al, 1992). Sf9 or Sf158 cells were infected with recombinant baculovirus isolates containing the specified protein kinase C isotype cDNAs (Parker et al, 1986; Coussens et al, 1986) or a non-protein kinase C-related adenovirus E1 a gene (Patel and Jones, 1990). After 3 days infected and uninfected control cells were collected by centrifugation at 600 RCF for 15 min and frozen. […]
(§2) The assay was carried out in 0.5 mL polypropylene centrifuge tubes. […] Specific and nonspecific binding values were then determined as described (Driedger and Blumberg, 1980b). […]

The next assay deals with T3, protein kinase C ε (Homo sapiens, UniProt Q02156).
T3 construct: Successful full-length expression of each isotype was confirmed by immunoblotting; made in house; host or cells: Sf9 or Sf158 insect cells (baculovirus)
T3 sequence (Q02156 1-737): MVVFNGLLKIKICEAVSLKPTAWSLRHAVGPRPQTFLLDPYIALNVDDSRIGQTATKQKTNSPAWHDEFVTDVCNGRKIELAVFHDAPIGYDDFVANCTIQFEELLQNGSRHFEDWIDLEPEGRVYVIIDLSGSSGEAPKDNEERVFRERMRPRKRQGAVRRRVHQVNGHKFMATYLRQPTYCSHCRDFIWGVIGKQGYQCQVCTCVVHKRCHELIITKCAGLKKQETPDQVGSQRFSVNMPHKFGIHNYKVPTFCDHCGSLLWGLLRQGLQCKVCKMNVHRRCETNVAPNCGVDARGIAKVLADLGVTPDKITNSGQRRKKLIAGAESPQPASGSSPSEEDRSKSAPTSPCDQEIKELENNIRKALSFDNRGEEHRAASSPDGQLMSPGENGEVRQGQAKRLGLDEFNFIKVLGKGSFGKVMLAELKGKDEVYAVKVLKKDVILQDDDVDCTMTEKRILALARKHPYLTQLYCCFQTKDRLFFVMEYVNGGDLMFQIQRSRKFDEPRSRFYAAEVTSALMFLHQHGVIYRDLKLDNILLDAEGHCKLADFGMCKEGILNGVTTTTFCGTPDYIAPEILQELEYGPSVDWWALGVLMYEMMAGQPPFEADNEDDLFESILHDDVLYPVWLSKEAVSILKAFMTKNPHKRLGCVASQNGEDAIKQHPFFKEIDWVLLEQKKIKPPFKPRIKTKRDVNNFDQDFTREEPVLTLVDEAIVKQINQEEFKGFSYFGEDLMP
The assay can be described thus: [3H]PDBu receptor binding assay, protein kinase C ε.
Source text: as §1, §2

Assay [2] has as its system phorbol 12-myristate 13-acetate induced ear inflammation/erythema. The assay can be described thus: Mouse ear anti-inflammatory test against phorbol 12-myristate 13-acetate. The assay is classed as in vivo, mice. The protocol:
Method: A stock solution of 300 pmoles of the standard inflammatory compound phorbol 12-myristate 13-acetate per 5 μL acetone was prepared. This solution was used to prepare ten-fold dilutions of N^1,14-O-digeranyl-(9S,12S)-indolactam V, prepared as in Example 8, covering concentrations of the latter ranging from 3,500 to 350,000 pmoles per 5 μL.

Another assay concerns the target T4, protein kinase C μ (Homo sapiens, UniProt Q15139).
T4 construct: Successful full-length expression of each isotype was confirmed by immunoblotting; made in house; host or cells: Sf9 or Sf158 insect cells (baculovirus)
T4 sequence (Q15139 1-912): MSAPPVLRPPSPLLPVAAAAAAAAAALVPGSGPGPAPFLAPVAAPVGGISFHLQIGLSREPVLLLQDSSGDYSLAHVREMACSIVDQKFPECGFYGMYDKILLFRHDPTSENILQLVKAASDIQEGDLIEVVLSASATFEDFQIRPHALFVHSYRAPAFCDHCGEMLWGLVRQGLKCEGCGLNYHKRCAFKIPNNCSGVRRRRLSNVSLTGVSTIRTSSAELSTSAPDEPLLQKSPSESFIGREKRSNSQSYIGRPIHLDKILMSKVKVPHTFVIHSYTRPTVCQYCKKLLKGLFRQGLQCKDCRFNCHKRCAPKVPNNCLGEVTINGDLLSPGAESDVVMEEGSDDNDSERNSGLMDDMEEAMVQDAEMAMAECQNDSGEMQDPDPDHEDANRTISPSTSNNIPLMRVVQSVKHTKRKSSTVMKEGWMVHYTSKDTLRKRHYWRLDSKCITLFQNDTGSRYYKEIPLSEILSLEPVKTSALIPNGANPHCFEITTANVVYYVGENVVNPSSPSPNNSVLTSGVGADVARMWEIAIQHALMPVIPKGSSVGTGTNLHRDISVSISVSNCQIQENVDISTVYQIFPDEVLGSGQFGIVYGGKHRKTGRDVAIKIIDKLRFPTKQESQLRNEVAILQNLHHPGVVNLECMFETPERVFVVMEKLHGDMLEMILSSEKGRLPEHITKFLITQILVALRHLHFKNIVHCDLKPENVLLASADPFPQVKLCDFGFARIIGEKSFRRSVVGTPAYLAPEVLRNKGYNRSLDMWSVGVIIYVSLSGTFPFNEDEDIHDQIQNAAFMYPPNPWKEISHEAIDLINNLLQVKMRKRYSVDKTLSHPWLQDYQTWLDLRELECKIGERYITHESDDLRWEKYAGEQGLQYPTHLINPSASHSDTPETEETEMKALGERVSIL
The assay can be described thus: [3H]PDBu receptor binding assay, protein kinase C μ.
Source text: as §1, §2

Another assay has as its target T5, protein kinase Cα (Bos taurus, UniProt P04409).
T5 construct: Successful full-length expression of each isotype was confirmed by immunoblotting; made in house; host or cells: Sf9 or Sf158 insect cells (baculovirus)
The experiment in a line: [3H]PDBu receptor binding assay, protein kinase C α.
Source text: as §1, §2

The target in another assay is T6, protein kinase C η (Homo sapiens, UniProt P24723).
T6 construct: Successful full-length expression of each isotype was confirmed by immunoblotting; made in house; host or cells: Sf9 or Sf158 insect cells (baculovirus)
T6 sequence (P24723 whole entry): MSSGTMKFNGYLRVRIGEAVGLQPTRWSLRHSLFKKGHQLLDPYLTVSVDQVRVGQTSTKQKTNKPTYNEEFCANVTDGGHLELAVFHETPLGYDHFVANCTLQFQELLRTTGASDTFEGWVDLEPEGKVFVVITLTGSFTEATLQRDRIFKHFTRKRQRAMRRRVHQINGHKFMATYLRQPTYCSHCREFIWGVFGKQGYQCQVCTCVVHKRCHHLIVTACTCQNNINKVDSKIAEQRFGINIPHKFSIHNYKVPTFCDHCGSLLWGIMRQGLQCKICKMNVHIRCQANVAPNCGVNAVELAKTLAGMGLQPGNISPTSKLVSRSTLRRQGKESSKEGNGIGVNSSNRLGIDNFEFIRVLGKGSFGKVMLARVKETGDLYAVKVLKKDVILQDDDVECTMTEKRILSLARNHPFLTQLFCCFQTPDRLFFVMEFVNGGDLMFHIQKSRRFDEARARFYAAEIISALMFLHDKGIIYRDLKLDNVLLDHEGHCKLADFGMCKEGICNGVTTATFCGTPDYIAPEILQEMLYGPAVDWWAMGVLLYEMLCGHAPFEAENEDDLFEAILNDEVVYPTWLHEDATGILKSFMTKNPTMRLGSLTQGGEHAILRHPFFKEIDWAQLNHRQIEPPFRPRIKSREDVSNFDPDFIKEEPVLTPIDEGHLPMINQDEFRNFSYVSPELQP
The assay can be described thus: [3H]PDBu receptor binding assay, protein kinase C η.
Source text: as §1, §2

A further assay concerns the target T7, protein kinase C γ (Bos taurus, UniProt P05128).
T7 construct: Successful full-length expression of each isotype was confirmed by immunoblotting; made in house; host or cells: Sf9 or Sf158 insect cells (baculovirus)
The assay can be described thus: [3H]PDBu receptor binding assay, protein kinase C γ.
Source text: as §1, §2

For `CCCCOC[C@@H]1Cc2c[nH]c3cccc(c23)N(C)[C@@H](C(C)C)C(=O)N1` [(−)-14-O-butylindolactam V], in the assay on Raji cells, the “Induction of Epstein-Barr virus early antigen” value (“Induction” for short) is listed as “no induction of the Epstein-Barr virus early antigen in Raji cells could be detected”.
For `COC[C@@H]1Cc2c[nH]c3cccc(c23)N(C)[C@@H](C(C)C)C(=O)N1` [(−)-14-O-methylindolactam V, 14-O-methyl-(9S,12S)-indolactam V], the “Inhibition of binding of [3H]PMA to a protein kinase C preparation” value in assay [1] is reported as “did not measurably inhibit”. Moreover, the “Induction” value with Raji cells was “no induction of the Epstein-Barr virus early antigen in Raji cells could be detected”.
`CCCCCCOC[C@@H]1Cc2c[nH]c3cccc(c23)N(C)[C@@H](C(C)C)C(=O)N1` [(−)-O-hexylindolactam V, 14-O-hexyl-(9S,12S)-indolactam V]: in the assay with Raji cells, the “Induction” value is reported as “no induction of the Epstein-Barr virus early antigen in Raji cells could be detected”.
On to `CC(C)=CCC/C(C)=C/COC[C@@H]1Cc2cn(C/C=C(\C)CCC=C(C)C)c3cccc(c23)N(C)[C@@H](C(C)C)C(=O)N1` [N^1,14-O-digeranyl-(9S,12S)-indolactam V, N^1,14-O-Digeranyl-(9S,12S)-indolactam V], for which the Ki on protein kinase C δ was 900 nM; at human protein kinase Cθ, 900 nM; at protein kinase C ε, 300 nM; at protein kinase C μ it was 500 nM; at protein kinase Cα it was 5900 nM; on protein kinase C η, 500 nM. The same compound yielded a Ki at protein kinase C γ of 6500 nM. The “Persistence of inhibition of PMA induced ear inflammation” value in assay [2] (mouse ear, highest concentration (350,000 pmoles per 5 μL), observation to 48 hours) is “inhibition persisting for the duration of the experiment at the highest concentration”. For the same compound, the “Inhibition of phorbol 12-myristate 13-acetate induced ear inflammation/erythema” value in assay [2] (mouse right ear, topical 5 μL acetone, 300 pmoles PMA, test compound 3,500 to 350,000 pmoles per 5 μL, observed 1 to 48 hours) was “Inhibition of the phorbol 12-myristate 13-acetate induced inflammation was observed at the medium and high concentrations”.
For the compound (−)-indolactam V, the “Inhibition of binding of [3H]PMA to a protein kinase C preparation” value in assay [1] is “very active”. The “Induction” value in the assay on Raji cells is recorded as “very active”.

Values taken from patent publication US6441020B1, “Protein kinase C modulators. W” (priority 1995, dated 2002).
